What follows are molecules tested on MDA-MB-231 (assay: drug sensitivity score (DSS), CellTox Green (DSS (AUC-based score)); higher = stronger drug effect (viability inhibition or cytotoxicity); extreme values may be limits of the assay). Conditions: incubation time: 72 h.
Summary of the method: (§1)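 Compound was dispensed into 384-well plates at 5 concentrations in 10-fold steps spanning a 10,000-fold range chosen for each compound, and 20 µl of breast cancer cell suspension was added before 72 h of incubation. CellTox Green fluorescence was read at 485/520 nm, followed by CellTiter-Glo luminescence after 10 min at room temperature. Values on each plate were normalised to 0.1 % DMSO and a positive kill control. The drug sensitivity score came from the area under the fitted dose-response curve.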

SMILES	drug sensitivity score
CN[C@@H]1C[C@H]2O[C@@](C)([C@@H]1OC)n1c3ccccc3c3c4c(c5c6ccccc6n2c5c31)C(=O)N[C@H]4O [UCN-01]	19
C[C@@H](Oc1cc(-c2cnn(C3CCNCC3)c2)cnc1N)c1c(Cl)ccc(F)c1Cl [Crizotinib]	0
CC1(C)NC(=O)N(c2ccc([N+](=O)[O-])c(C(F)(F)F)c2)C1=O [Nilutamide]	0
CNCc1ccc(-c2[nH]c3cc(F)cc4c3c2CCNC4=O)cc1 [Rucaparib]	0
C[C@]12CC[C@@H]3c4ccc(O)cc4C[C@@H](CCCCCCCCC[S+]([O-])CCCC(F)(F)C(F)(F)F)[C@H]3[C@@H]1CC[C@@H]2O (stereo not given in full) [Fulvestrant]	0
CC(C)Cn1cnc2c(N)nc3ccccc3c21 [Imiquimod]	0
O=P1(NCCCl)OCCCN1CCCl (stereo not given) [Ifosfamide]	1.11
Cn1c(Nc2ccc(C(F)(F)F)cc2)nc2cc(Oc3ccnc(-c4ncc(C(F)(F)F)[nH]4)c3)ccc21 [RAF265]	0
Cc1ccc(C(=O)N(CCCN)[C@@H](c2oc3cc(Cl)ccc3c(=O)c2Cc2ccccc2)C(C)C)cc1	0
Cn1c(CCCC(=O)O)nc2cc(N(CCCl)CCCl)ccc21 [Bendamustine]	4.63
O=C1CCC(N2C(=O)c3ccccc3C2=O)C(=O)N1 (stereo not given) [Thalidomide]	0
O=C(O)c1ccc(-c2c[nH]c3ncc(-c4ccccc4)cc23)cc1C1CCCC1	0
C=C(c1ccc(C(=O)O)cc1)c1cc2c(cc1C)C(C)(C)CCC2(C)C [Bexarotene]	0

What follows are molecules tested on MDA-MB-436 in the same assay as above. Conditions: incubation time: 72 h.
Summary of the method: as §1

SMILES	drug sensitivity score
Oc1nc(-c2ccc(C(F)(F)F)cc2)nc2c1CSCC2 [XAV-939]	0
NC(=O)Nc1cc(-c2cccc(F)c2)sc1C(=O)N[C@H]1CCCNC1 [AZD7762]	0
N.N.[Cl][Pt][Cl] [Cisplatin]	0
CN[C@@H]1C[C@H]2O[C@@](C)([C@@H]1OC)n1c3ccccc3c3c4c(c5c6ccccc6n2c5c31)C(=O)N[C@H]4O [UCN-01]	0
CC1(C)NC(=O)N(c2ccc([N+](=O)[O-])c(C(F)(F)F)c2)C1=O [Nilutamide]	0
CNCc1ccc(-c2[nH]c3cc(F)cc4c3c2CCNC4=O)cc1 [Rucaparib]	0
C[C@]12CC[C@@H]3c4ccc(O)cc4C[C@@H](CCCCCCCCC[S+]([O-])CCCC(F)(F)C(F)(F)F)[C@H]3[C@@H]1CC[C@@H]2O (stereo not given in full) [Fulvestrant]	0
CC(C)Cn1cnc2c(N)nc3ccccc3c21 [Imiquimod]	0
C#Cc1cccc(Nc2ncnc3cc(OCCOC)c(OCCOC)cc23)c1 [Erlotinib]	0
Cn1c(Nc2ccc(C(F)(F)F)cc2)nc2cc(Oc3ccnc(-c4ncc(C(F)(F)F)[nH]4)c3)ccc21 [RAF265]	0
Cc1ccc(C(=O)N(CCCN)[C@@H](c2oc3cc(Cl)ccc3c(=O)c2Cc2ccccc2)C(C)C)cc1	0
Cn1c(CCCC(=O)O)nc2cc(N(CCCl)CCCl)ccc21 [Bendamustine]	0
O=C1CCC(N2C(=O)c3ccccc3C2=O)C(=O)N1 (stereo not given) [Thalidomide]	4.46
O=C(O)c1ccc(-c2c[nH]c3ncc(-c4ccccc4)cc23)cc1C1CCCC1	0
C=C(c1ccc(C(=O)O)cc1)c1cc2c(cc1C)C(C)(C)CCC2(C)C [Bexarotene]	0

The molecules below were run on CAL-51 in the same assay as above. Conditions: incubation time: 72 h.
Summary of the method: as §1

SMILES	drug sensitivity score
Oc1nc(-c2ccc(C(F)(F)F)cc2)nc2c1CSCC2 [XAV-939]	0
NC(=O)Nc1cc(-c2cccc(F)c2)sc1C(=O)N[C@H]1CCCNC1 [AZD7762]	3.37
N.N.[Cl][Pt][Cl] [Cisplatin]	0
CN[C@@H]1C[C@H]2O[C@@](C)([C@@H]1OC)n1c3ccccc3c3c4c(c5c6ccccc6n2c5c31)C(=O)N[C@H]4O [UCN-01]	17
C[C@@H](Oc1cc(-c2cnn(C3CCNCC3)c2)cnc1N)c1c(Cl)ccc(F)c1Cl [Crizotinib]	0
CC1(C)NC(=O)N(c2ccc([N+](=O)[O-])c(C(F)(F)F)c2)C1=O [Nilutamide]	0
CNCc1ccc(-c2[nH]c3cc(F)cc4c3c2CCNC4=O)cc1 [Rucaparib]	0
C[C@]12CC[C@@H]3c4ccc(O)cc4C[C@@H](CCCCCCCCC[S+]([O-])CCCC(F)(F)C(F)(F)F)[C@H]3[C@@H]1CC[C@@H]2O (stereo not given in full) [Fulvestrant]	0
CC(C)Cn1cnc2c(N)nc3ccccc3c21 [Imiquimod]	0
C#Cc1cccc(Nc2ncnc3cc(OCCOC)c(OCCOC)cc23)c1 [Erlotinib]	2.1
O=P1(NCCCl)OCCCN1CCCl (stereo not given) [Ifosfamide]	0
Cn1c(Nc2ccc(C(F)(F)F)cc2)nc2cc(Oc3ccnc(-c4ncc(C(F)(F)F)[nH]4)c3)ccc21 [RAF265]	0
Cc1ccc(C(=O)N(CCCN)[C@@H](c2oc3cc(Cl)ccc3c(=O)c2Cc2ccccc2)C(C)C)cc1	0
Cn1c(CCCC(=O)O)nc2cc(N(CCCl)CCCl)ccc21 [Bendamustine]	0
O=C1CCC(N2C(=O)c3ccccc3C2=O)C(=O)N1 (stereo not given) [Thalidomide]	0
O=C(O)c1ccc(-c2c[nH]c3ncc(-c4ccccc4)cc23)cc1C1CCCC1	0
C=C(c1ccc(C(=O)O)cc1)c1cc2c(cc1C)C(C)(C)CCC2(C)C [Bexarotene]	0

What follows are molecules tested on BT-549 in the same assay as above. Conditions: incubation time: 72 h.
Summary of the method: as §1

SMILES	drug sensitivity score
Oc1nc(-c2ccc(C(F)(F)F)cc2)nc2c1CSCC2 [XAV-939]	0
NC(=O)Nc1cc(-c2cccc(F)c2)sc1C(=O)N[C@H]1CCCNC1 [AZD7762]	0
N.N.[Cl][Pt][Cl] [Cisplatin]	0
CN[C@@H]1C[C@H]2O[C@@](C)([C@@H]1OC)n1c3ccccc3c3c4c(c5c6ccccc6n2c5c31)C(=O)N[C@H]4O [UCN-01]	9.46
C[C@@H](Oc1cc(-c2cnn(C3CCNCC3)c2)cnc1N)c1c(Cl)ccc(F)c1Cl [Crizotinib]	0
CC1(C)NC(=O)N(c2ccc([N+](=O)[O-])c(C(F)(F)F)c2)C1=O [Nilutamide]	0
CNCc1ccc(-c2[nH]c3cc(F)cc4c3c2CCNC4=O)cc1 [Rucaparib]	0
C[C@]12CC[C@@H]3c4ccc(O)cc4C[C@@H](CCCCCCCCC[S+]([O-])CCCC(F)(F)C(F)(F)F)[C@H]3[C@@H]1CC[C@@H]2O (stereo not given in full) [Fulvestrant]	0
CC(C)Cn1cnc2c(N)nc3ccccc3c21 [Imiquimod]	0.506
C#Cc1cccc(Nc2ncnc3cc(OCCOC)c(OCCOC)cc23)c1 [Erlotinib]	0
O=P1(NCCCl)OCCCN1CCCl (stereo not given) [Ifosfamide]	0.736
Cn1c(Nc2ccc(C(F)(F)F)cc2)nc2cc(Oc3ccnc(-c4ncc(C(F)(F)F)[nH]4)c3)ccc21 [RAF265]	9.17
Cc1ccc(C(=O)N(CCCN)[C@@H](c2oc3cc(Cl)ccc3c(=O)c2Cc2ccccc2)C(C)C)cc1	0
Cn1c(CCCC(=O)O)nc2cc(N(CCCl)CCCl)ccc21 [Bendamustine]	0
O=C1CCC(N2C(=O)c3ccccc3C2=O)C(=O)N1 (stereo not given) [Thalidomide]	0
O=C(O)c1ccc(-c2c[nH]c3ncc(-c4ccccc4)cc23)cc1C1CCCC1	0
C=C(c1ccc(C(=O)O)cc1)c1cc2c(cc1C)C(C)(C)CCC2(C)C [Bexarotene]	0

The molecules below were run on HCC1143 in the same assay as above. Conditions: incubation time: 72 h.
Summary of the method: as §1

SMILES	drug sensitivity score
Oc1nc(-c2ccc(C(F)(F)F)cc2)nc2c1CSCC2 [XAV-939]	0
NC(=O)Nc1cc(-c2cccc(F)c2)sc1C(=O)N[C@H]1CCCNC1 [AZD7762]	0
N.N.[Cl][Pt][Cl] [Cisplatin]	0
CN[C@@H]1C[C@H]2O[C@@](C)([C@@H]1OC)n1c3ccccc3c3c4c(c5c6ccccc6n2c5c31)C(=O)N[C@H]4O [UCN-01]	8.74
C[C@@H](Oc1cc(-c2cnn(C3CCNCC3)c2)cnc1N)c1c(Cl)ccc(F)c1Cl [Crizotinib]	0
CNCc1ccc(-c2[nH]c3cc(F)cc4c3c2CCNC4=O)cc1 [Rucaparib]	0
C[C@]12CC[C@@H]3c4ccc(O)cc4C[C@@H](CCCCCCCCC[S+]([O-])CCCC(F)(F)C(F)(F)F)[C@H]3[C@@H]1CC[C@@H]2O (stereo not given in full) [Fulvestrant]	0
CC(C)Cn1cnc2c(N)nc3ccccc3c21 [Imiquimod]	0
C#Cc1cccc(Nc2ncnc3cc(OCCOC)c(OCCOC)cc23)c1 [Erlotinib]	0
O=P1(NCCCl)OCCCN1CCCl (stereo not given) [Ifosfamide]	0
Cn1c(Nc2ccc(C(F)(F)F)cc2)nc2cc(Oc3ccnc(-c4ncc(C(F)(F)F)[nH]4)c3)ccc21 [RAF265]	0
Cc1ccc(C(=O)N(CCCN)[C@@H](c2oc3cc(Cl)ccc3c(=O)c2Cc2ccccc2)C(C)C)cc1	0
Cn1c(CCCC(=O)O)nc2cc(N(CCCl)CCCl)ccc21 [Bendamustine]	0
O=C1CCC(N2C(=O)c3ccccc3C2=O)C(=O)N1 (stereo not given) [Thalidomide]	0
O=C(O)c1ccc(-c2c[nH]c3ncc(-c4ccccc4)cc23)cc1C1CCCC1	0
C=C(c1ccc(C(=O)O)cc1)c1cc2c(cc1C)C(C)(C)CCC2(C)C [Bexarotene]	0

Each molecule was assayed on MFM-223 in the same assay as above. Conditions: incubation time: 72 h.
Summary of the method: as §1

SMILES	drug sensitivity score
Oc1nc(-c2ccc(C(F)(F)F)cc2)nc2c1CSCC2 [XAV-939]	0
NC(=O)Nc1cc(-c2cccc(F)c2)sc1C(=O)N[C@H]1CCCNC1 [AZD7762]	0
N.N.[Cl][Pt][Cl] [Cisplatin]	0
CN[C@@H]1C[C@H]2O[C@@](C)([C@@H]1OC)n1c3ccccc3c3c4c(c5c6ccccc6n2c5c31)C(=O)N[C@H]4O [UCN-01]	6.67
C[C@@H](Oc1cc(-c2cnn(C3CCNCC3)c2)cnc1N)c1c(Cl)ccc(F)c1Cl [Crizotinib]	0
CC1(C)NC(=O)N(c2ccc([N+](=O)[O-])c(C(F)(F)F)c2)C1=O [Nilutamide]	0
CNCc1ccc(-c2[nH]c3cc(F)cc4c3c2CCNC4=O)cc1 [Rucaparib]	0
C[C@]12CC[C@@H]3c4ccc(O)cc4C[C@@H](CCCCCCCCC[S+]([O-])CCCC(F)(F)C(F)(F)F)[C@H]3[C@@H]1CC[C@@H]2O (stereo not given in full) [Fulvestrant]	0
CC(C)Cn1cnc2c(N)nc3ccccc3c21 [Imiquimod]	0
C#Cc1cccc(Nc2ncnc3cc(OCCOC)c(OCCOC)cc23)c1 [Erlotinib]	0
O=P1(NCCCl)OCCCN1CCCl (stereo not given) [Ifosfamide]	0
Cn1c(Nc2ccc(C(F)(F)F)cc2)nc2cc(Oc3ccnc(-c4ncc(C(F)(F)F)[nH]4)c3)ccc21 [RAF265]	2.58
Cc1ccc(C(=O)N(CCCN)[C@@H](c2oc3cc(Cl)ccc3c(=O)c2Cc2ccccc2)C(C)C)cc1	0
Cn1c(CCCC(=O)O)nc2cc(N(CCCl)CCCl)ccc21 [Bendamustine]	0
O=C1CCC(N2C(=O)c3ccccc3C2=O)C(=O)N1 (stereo not given) [Thalidomide]	0
O=C(O)c1ccc(-c2c[nH]c3ncc(-c4ccccc4)cc23)cc1C1CCCC1	1.51
C=C(c1ccc(C(=O)O)cc1)c1cc2c(cc1C)C(C)(C)CCC2(C)C [Bexarotene]	0
